# From ChEMBL document CHEMBL1201862, “PubChem BioAssay data set” (2004)
#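 Assay format: 96-well plates, 48-hour exposure. GI50 is the concentration that inhibits growth by half.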 The source made the active and inactive calls. Cut-off read from the data, not from the text of the source: active = GI50 up to about 1.1 µM and inactive = higher.
# Columns and labels:
# Assay in all cases: DTP human tumour cell line panel, 48 h
# A498 = tested on: A498
# SW-620 = tested on: SW-620
# SNB-75 = tested on: SNB-75
# SK-MEL-2 = tested on: SK-MEL-2
# HCT-116 = tested on: HCT-116
# TK-10 = tested on: TK-10
# DMS-114 = tested on: DMS-114
# OVCAR-3 = tested on: OVCAR-3
# SK-MEL-28 = tested on: SK-MEL-28
# DMS-273 = tested on: DMS-273
# UACC-257 = tested on: UACC-257
# NCI-H460 = tested on: NCI-H460
# SK-MEL-5 = tested on: SK-MEL-5
# NCI-H226 = tested on: NCI-H226
# EKVX = tested on: EKVX
# SK-OV-3 = tested on: SK-OV-3
Structure (SMILES),GI50 (A498),GI50 (SW-620),GI50 (SNB-75),GI50 (SK-MEL-2),GI50 (HCT-116),GI50 (TK-10),GI50 (DMS-114),GI50 (OVCAR-3),GI50 (SK-MEL-28),GI50 (DMS-273),GI50 (UACC-257),GI50 (NCI-H460),GI50 (SK-MEL-5),GI50 (NCI-H226),GI50 (EKVX),GI50 (SK-OV-3)
N#CC1C(C#N)C2(c3ccccc3)C(c3ccccc3)=NN(c3ccccc3)CC12 (centres undefined),> 100 µM (inactive),> 100 µM (inactive),36.4 µM (inactive),> 100 µM (inactive),> 100 µM (inactive),> 100 µM (inactive),59.4 µM (inactive),> 100 µM (inactive),> 100 µM (inactive),> 100 µM (inactive),> 100 µM (inactive),> 100 µM (inactive),> 100 µM (inactive),> 100 µM (inactive),> 100 µM (inactive),
O=C(O)c1ccc(C2=Cc3cc(Cl)ccc3OC2)cc1,> 100 µM (inactive),> 100 µM (inactive),22 µM (inactive),> 100 µM (inactive),> 100 µM (inactive),> 100 µM (inactive),> 100 µM (inactive),> 100 µM (inactive),> 100 µM (inactive),> 100 µM (inactive),> 100 µM (inactive),> 100 µM (inactive),> 100 µM (inactive),> 100 µM (inactive),> 100 µM (inactive),> 100 µM (inactive)
CN(C)CCOc1cccc2c1C(=O)c1ccccc1C2=O,18.1 µM (inactive),8.32 µM (inactive),14.9 µM (inactive),14.2 µM (inactive),4.58 µM (inactive),17.3 µM (inactive),10.4 µM (inactive),17.9 µM (inactive),15.3 µM (inactive),10.1 µM (inactive),13.1 µM (inactive),5.36 µM (inactive),12.8 µM (inactive),9.95 µM (inactive),18.4 µM (inactive),20.4 µM (inactive)
CC(C)(C)c1cc(C(=O)O)c2c(c1)C(=O)OC2(c1ccccc1)c1ccccc1C(=O)O (centres undefined),,> 100 µM (inactive),90.4 µM (inactive),> 100 µM (inactive),> 100 µM (inactive),> 100 µM (inactive),> 100 µM (inactive),> 100 µM (inactive),> 100 µM (inactive),> 100 µM (inactive),> 100 µM (inactive),> 100 µM (inactive),,23.9 µM (inactive),> 100 µM (inactive),0.0611 µM (active)
Cc1nc2ccccc2c(=O)n1/N=C(\N=N\c1ccccc1Cl)c1ccccc1,27.5 µM (inactive),22.7 µM (inactive),,,> 10 µM (inactive),60.5 µM (inactive),15.5 µM (inactive),,41.5 µM (inactive),31.6 µM (inactive),,23.9 µM (inactive),19.4 µM (inactive),,20.8 µM (inactive),31 µM (inactive)
O=C(OCC1CO1)c1cccs1 (centres undefined),,> 100 µM (inactive),37 µM (inactive),> 100 µM (inactive),,> 100 µM (inactive),> 100 µM (inactive),> 100 µM (inactive),> 100 µM (inactive),> 100 µM (inactive),> 100 µM (inactive),> 100 µM (inactive),> 100 µM (inactive),,> 100 µM (inactive),> 100 µM (inactive)
COC(=O)[C@@]12C3=NO[C@]1(C(=O)OC)C(O[Si](C)(C)C(C)(C)C)[C@H]1OC(C)(C)O[C@H]1[C@@H]2C(OCc1ccccc1)CC3 (some centres undefined),38.3 µM (inactive),> 100 µM (inactive),17.9 µM (inactive),28.8 µM (inactive),41.8 µM (inactive),84.1 µM (inactive),36.6 µM (inactive),46.5 µM (inactive),> 100 µM (inactive),52 µM (inactive),,6.21 µM (inactive),35.1 µM (inactive),88.7 µM (inactive),89.1 µM (inactive),25.6 µM (inactive)
COC(=O)C(C(=O)C(=O)Nc1cccc(C)c1)C1=NC(N)SS1 (centres undefined),> 100 µM (inactive),> 100 µM (inactive),> 100 µM (inactive),> 100 µM (inactive),> 100 µM (inactive),> 100 µM (inactive),> 100 µM (inactive),> 100 µM (inactive),> 100 µM (inactive),> 100 µM (inactive),> 100 µM (inactive),> 100 µM (inactive),> 100 µM (inactive),> 100 µM (inactive),> 100 µM (inactive),> 100 µM (inactive)
COc1cc(/C=C\c2ccc(O)cc2)cc(OC)c1OC,29.4 µM (inactive),2.65 µM (inactive),3.94 µM (inactive),2.64 µM (inactive),3.96 µM (inactive),18.2 µM (inactive),2.48 µM (inactive),2.32 µM (inactive),1.91 µM (inactive),0.35 µM (active),17.3 µM (inactive),3.33 µM (inactive),1.18 µM (inactive),22.3 µM (inactive),9.93 µM (inactive),3.88 µM (inactive)
Cn1cnc([N+](=O)[O-])c1Sc1nc2ccccc2s1,,4 µM (inactive),15.6 µM (inactive),,5.47 µM (inactive),,3.9 µM (inactive),3.7 µM (inactive),9.1 µM (inactive),1.36 µM (inactive),,12 µM (inactive),13.7 µM (inactive),9.84 µM (inactive),3.96 µM (inactive),15.5 µM (inactive)
